Test [1] has as its target T1, Muscarinic acetylcholine receptor M5 (Homo sapiens, UniProt P08912). Also: in other assays of this panel Not Active means under 50% inhibition at 10 µM.
T1 sequence (P08912 whole entry): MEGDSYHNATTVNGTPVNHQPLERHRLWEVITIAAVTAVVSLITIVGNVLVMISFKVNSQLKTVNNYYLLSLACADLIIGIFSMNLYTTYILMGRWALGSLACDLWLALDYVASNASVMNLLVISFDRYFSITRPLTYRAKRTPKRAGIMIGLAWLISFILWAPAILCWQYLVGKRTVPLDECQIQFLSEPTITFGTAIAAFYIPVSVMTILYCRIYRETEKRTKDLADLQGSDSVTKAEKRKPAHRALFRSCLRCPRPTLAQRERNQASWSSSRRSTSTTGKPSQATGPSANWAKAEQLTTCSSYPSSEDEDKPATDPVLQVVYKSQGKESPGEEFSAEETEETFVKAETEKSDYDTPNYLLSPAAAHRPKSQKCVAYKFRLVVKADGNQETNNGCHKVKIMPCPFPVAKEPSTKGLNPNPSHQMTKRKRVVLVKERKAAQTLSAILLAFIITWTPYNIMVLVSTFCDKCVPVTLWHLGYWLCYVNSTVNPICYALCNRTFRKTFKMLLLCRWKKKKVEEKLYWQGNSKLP
It is filed as cell membranes, CHO-K1, Membrane. Particulars: cho-k1.

Test [2] addresses T2, Neuropeptide Y receptor type 1 (Homo sapiens, UniProt P25929).
T2 sequence (P25929 whole entry): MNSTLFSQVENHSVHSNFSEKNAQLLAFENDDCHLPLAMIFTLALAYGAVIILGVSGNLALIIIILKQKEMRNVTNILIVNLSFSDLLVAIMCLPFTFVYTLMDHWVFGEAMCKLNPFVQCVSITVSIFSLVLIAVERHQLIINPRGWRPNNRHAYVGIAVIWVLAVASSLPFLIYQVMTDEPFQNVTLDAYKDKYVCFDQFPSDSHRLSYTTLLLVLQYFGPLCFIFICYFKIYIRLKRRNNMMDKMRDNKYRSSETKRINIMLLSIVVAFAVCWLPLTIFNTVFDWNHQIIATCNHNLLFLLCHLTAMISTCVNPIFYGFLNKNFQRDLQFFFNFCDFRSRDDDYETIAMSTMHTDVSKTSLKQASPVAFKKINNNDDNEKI
It is filed as cell membranes, Membrane. To be noted: sk-n-mc.

Test [3] deals with T3, Alpha-2C adrenergic receptor (Homo sapiens, UniProt P18825).
T3 sequence (P18825 whole entry): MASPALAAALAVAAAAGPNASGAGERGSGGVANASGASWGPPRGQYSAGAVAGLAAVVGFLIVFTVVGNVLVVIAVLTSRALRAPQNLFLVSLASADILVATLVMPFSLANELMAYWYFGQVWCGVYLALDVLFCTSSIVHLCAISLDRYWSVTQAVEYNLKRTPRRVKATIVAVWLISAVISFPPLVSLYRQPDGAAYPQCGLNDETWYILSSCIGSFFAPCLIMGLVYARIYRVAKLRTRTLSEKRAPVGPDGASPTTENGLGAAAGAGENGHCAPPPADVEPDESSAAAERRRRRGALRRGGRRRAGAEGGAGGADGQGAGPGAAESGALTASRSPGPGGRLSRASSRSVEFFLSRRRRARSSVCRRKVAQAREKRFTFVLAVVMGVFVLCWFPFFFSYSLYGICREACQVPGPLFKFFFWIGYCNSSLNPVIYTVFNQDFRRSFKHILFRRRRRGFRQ
The test is described as follows: DRUGMATRIX: Adrenergic Alpha-2C radioligand binding (ligand: [3H] MK-912). As to IC50: call rule not given here. It is filed as cell membranes, Sf9, Membrane.

Test [4] deals with T4, 5-hydroxytryptamine receptor 1A (Rattus norvegicus, UniProt P19327).
T4 sequence (P19327 whole entry): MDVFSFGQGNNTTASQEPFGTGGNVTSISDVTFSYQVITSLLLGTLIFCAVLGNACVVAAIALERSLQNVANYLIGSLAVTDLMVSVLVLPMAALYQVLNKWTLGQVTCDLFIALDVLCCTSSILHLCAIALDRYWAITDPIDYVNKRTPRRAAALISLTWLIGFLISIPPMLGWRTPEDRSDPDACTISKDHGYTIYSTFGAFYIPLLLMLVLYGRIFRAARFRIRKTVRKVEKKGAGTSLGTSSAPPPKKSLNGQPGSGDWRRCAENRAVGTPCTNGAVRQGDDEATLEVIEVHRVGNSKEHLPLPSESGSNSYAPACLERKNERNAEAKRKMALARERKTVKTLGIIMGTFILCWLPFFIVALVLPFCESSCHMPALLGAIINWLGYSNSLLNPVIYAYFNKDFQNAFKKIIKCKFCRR
It is filed as cell membranes, CHO-K1, Membrane.

The target in test [5] is Protein phosphatase 3 catalytic subunit alpha (Homo sapiens, UniProt Q08209). Further details: species or system Escherichia coli.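 Also: inhibition of calcineurin (PP2B) enzyme activity, measured with DiFMUP as the substrate; in other assays of this panel Not Active means under 50% inhibition at 10 µM.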
In test [6] the target is Matrix metalloproteinase-9 (Homo sapiens, UniProt P14780). The test is described as follows: biochemical. The class given is cell-based.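 Also: inhibition of isolated MMP-9 enzyme activity toward a synthetic peptide substrate, from the DrugMatrix protease screening panel; in other assays of this panel Not Active means under 50% inhibition at 10 µM.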
Matrix metalloproteinase-9, sequence (P14780 whole entry): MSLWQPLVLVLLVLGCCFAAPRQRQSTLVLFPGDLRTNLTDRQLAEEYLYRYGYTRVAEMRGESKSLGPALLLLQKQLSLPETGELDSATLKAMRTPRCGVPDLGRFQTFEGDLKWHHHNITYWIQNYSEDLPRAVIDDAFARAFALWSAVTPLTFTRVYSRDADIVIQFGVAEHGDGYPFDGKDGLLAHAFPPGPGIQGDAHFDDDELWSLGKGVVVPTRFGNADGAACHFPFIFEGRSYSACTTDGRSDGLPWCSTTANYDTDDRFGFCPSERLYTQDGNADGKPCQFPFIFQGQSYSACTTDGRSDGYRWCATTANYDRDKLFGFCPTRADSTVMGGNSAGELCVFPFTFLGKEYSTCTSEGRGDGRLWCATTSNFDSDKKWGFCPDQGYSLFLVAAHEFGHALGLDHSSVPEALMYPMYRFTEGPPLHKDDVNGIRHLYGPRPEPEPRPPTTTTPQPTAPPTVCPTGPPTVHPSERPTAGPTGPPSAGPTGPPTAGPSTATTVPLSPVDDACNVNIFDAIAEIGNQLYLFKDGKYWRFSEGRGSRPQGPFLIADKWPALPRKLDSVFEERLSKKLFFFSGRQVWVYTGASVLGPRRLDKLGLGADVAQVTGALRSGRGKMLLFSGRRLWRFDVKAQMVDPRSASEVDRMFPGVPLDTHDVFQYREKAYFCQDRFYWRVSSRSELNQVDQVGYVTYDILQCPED

For `O=C(c1ccccc1C(F)(F)F)N1CCC(Cc2ccccc2)CC1`, the IC50 entry in test [1], in test [2], in test [3] (sf9), in test [4] (cho-k1), in test [5] and in test [6] was “Not Active” in each case.
With `O=C/C=C/c1ccccc1`, the concentration for half-maximal inhibition (IC50) entry in test [1], in test [2], in test [3] (sf9), in test [4] (cho-k1), in test [5] and in test [6] was “Not Active” each time.
With `Nc1ccc2c3c(cccc13)C(=O)NC2=O`, the IC50 result in test [1], in test [2], in test [3] (sf9), in test [4] (cho-k1), in test [5] and in test [6] was “Not Active” in each case.
For the molecule `COc1ccc(C(=O)N2CCCC2=O)cc1`, the concentration for half-maximal inhibition (IC50) result in test [1], in test [2], in test [3] (sf9), in test [4] (cho-k1), in test [5] and in test [6] was “Not Active” in each case.
Consider `O=c1cnn([C@@H]2O[C@H](CO)[C@@H](O)[C@H]2O)c(=O)[nH]1` [6-AZAURIDINE], for which the IC50 entry in test [1], in test [2], in test [3] (sf9), in test [4] (cho-k1), in test [5] and in test [6] was “Not Active” throughout.
As for `CC[C@H](C)[C@H]1O[C@]2(C=C[C@@H]1C)C[C@@H]1C[C@@H](C/C=C(\C)[C@@H](O[C@H]3C[C@H](OC)[C@@H](O[C@H]4C[C@H](OC)[C@@H](O)[C@H](C)O4)[C@H](C)O3)[C@@H](C)/C=C/C=C3\CO[C@@H]4[C@H](O)C(C)=C[C@@H](C(=O)O1)[C@]34O)O2.CO[C@H]1C[C@H](O[C@H]2[C@H](C)O[C@@H](O[C@@H]3/C(C)=C/C[C@@H]4C[C@@H](C[C@]5(C=C[C@H](C)[C@@H](C(C)C)O5)O4)OC(=O)[C@@H]4C=C(C)[C@@H](O)[C@H]5OC/C(=C\C=C\[C@@H]3C)[C@]54O)C[C@@H]2OC)O[C@@H](C)[C@@H]1O` [ABAMECTIN], the 50% inhibitory concentration (IC50) result in test [1], in test [2], in test [3] (sf9), in test [4] (cho-k1), in test [5] and in test [6] was “Not Active” throughout.
For the molecule `NCCCC(O)(P(=O)(O)O)P(=O)(O)O` [ALENDRONIC ACID], the 50% inhibitory concentration (IC50) result in test [1], in test [2], in test [3] (sf9), in test [4] (cho-k1), in test [5] and in test [6] was “Not Active” throughout.
`Cc1nnc2n1-c1ccc(Cl)cc1C(c1ccccc1)=NC2` [ALPRAZOLAM]: the IC50 entry in test [1], in test [2], in test [3] (sf9), in test [4] (cho-k1), in test [5] and in test [6] was “Not Active” throughout.
In the case of `Cn1c(=O)c2[nH]cnc2n(C)c1=O.Cn1c(=O)c2[nH]cnc2n(C)c1=O.NCCN` [AMINOPHYLLINE], the IC50 entry in test [1], in test [2], in test [3] (sf9), in test [4] (cho-k1), in test [5] and in test [6] was “Not Active” each time.
With `CCC1(CCC(C)C)C(=O)NC(=O)NC1=O` [AMOBARBITAL], the IC50 result in test [1], in test [3] (sf9), in test [4] (cho-k1), in test [5] and in test [6] was “Not Active” in each case. In addition, the Ki (usually a dissociation constant, usually derived from enzyme kinetics or from competition with a known ligand) in test [2] is listed as “Not Active”.
On to `CC1(C)S[C@@H]2[C@H](NC(=O)[C@H](N)c3ccccc3)C(=O)N2[C@H]1C(=O)O` [AMPICILLIN], for which the half-maximal inhibitory concentration (IC50) entry in test [1], in test [2], in test [3] (sf9), in test [4] (cho-k1), in test [5] and in test [6] was “Not Active” in each case.
`COc1ccc(C2C(=O)c3ccccc3C2=O)cc1` [ANISINDIONE]: the IC50 entry in test [1], in test [2], in test [3] (sf9), in test [4] (cho-k1), in test [5] and in test [6] was “Not Active” throughout.
For the molecule `O=C1O[C@H]([C@@H](O)CO)C(O)=C1O` [ASCORBIC ACID], the IC50 entry in test [1], in test [2], in test [3] (sf9), in test [4] (cho-k1), in test [5] and in test [6] was “Not Active” in each case.
In the case of `CN1[C@@H]2CC[C@H]1C[C@@H](OC(=O)C(CO)c1ccccc1)C2` (some centres undefined) [ATROPINE], the IC50 entry in test [2], in test [3] (sf9), in test [4] (cho-k1), in test [5] and in test [6] was “Not Active” throughout.
In the case of `CC(C(=O)O)c1ccc2oc(-c3ccc(Cl)cc3)nc2c1` (centres undefined) [BENOXAPROFEN], the IC50 result in test [1], in test [2], in test [3] (sf9), in test [4] (cho-k1), in test [5] and in test [6] was “Not Active” throughout.
As to `COc1ccc2cc3[n+](cc2c1OC)CCc1cc2c(cc1-3)OCO2.[Cl-]` [BERBERINE CHLORIDE], the half-inhibitory concentration (IC50) – broadly, the concentration at which inhibition is half-maximal – in test [1] was “Not Active”; in test [2], “Not Active”; in test [3] (read-out: IC50), 2840 nM; in test [4] (cho-k1), “Not Active”; in test [5], “Not Active”; in test [6], “Not Active”. For the same molecule, the inhibition constant (Ki) in test [3] (read-out: Ki) amounted to 412 nM.
With `O=C(O)CCNC(=O)c1ccccc1` [BETAMIPRON], the IC50 result in test [1], in test [2], in test [3] (sf9), in test [4] (cho-k1), in test [5] and in test [6] was “Not Active” each time.
As to `CC(=O)Oc1ccc(C(c2ccc(OC(C)=O)cc2)c2ccccn2)cc1` [BISACODYL], the 50% inhibitory concentration (IC50) result in test [1], in test [2], in test [3] (sf9), in test [4] (cho-k1), in test [5] and in test [6] was “Not Active” throughout.
With `COc1cc(N)c(Cl)cc1C(=O)NC1CCN(CCCOc2ccc(F)cc2)CC1OC` (centres undefined) [CISAPRIDE], the IC50 entry was “Not Active” in test [1]; “Not Active” in test [2]; 2830 nM in test [4] (read-out: IC50); “Not Active” in test [5]; “Not Active” in test [6]. In test [4] (read-out: Ki), the inhibition constant (Ki) stood at 1620 nM.
Take `N=C(N)NC(=O)Cc1c(Cl)cccc1Cl` [GUANFACINE]: the IC50 result in test [1], in test [2], in test [4] (cho-k1), in test [5] and in test [6] was “Not Active” in each case.
Regarding `COc1cc2nc(N3CCN(C(=O)c4ccco4)CC3)nc(N)c2cc1OC` [PRAZOSIN], the IC50 result is “Not Active” in test [1]; “Not Active” in test [2]; “Not Active” in test [4] (cho-k1); “Not Active” in test [5]; 6960 nM in test [6] (read-out: IC50).
